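These data come from cells grown in 96-well plates and exposed to compound for 48 hours at five concentrations. GI50 = concentration required for 50% inhibition of growth.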 Calls of active or inactive are those of the source. No stated cut-off is given here; in the data, active = GI50 up to about 1.1 µM and inactive = higher.
Columns and labels:
Test in all cases: DTP human tumour cell line panel, 48 h
OVCAR-4 = test system: OVCAR-4
OVCAR-3 = test system: OVCAR-3
MDA-MB-231 = test system: MDA-MB-231
NCI-H522 = test system: NCI-H522
SNB-75 = test system: SNB-75
SN12C = test system: SN12C
OVCAR-5 = test system: OVCAR-5
HT-29 = test system: HT-29
NCI-H460 = test system: NCI-H460
BT-549 = test system: BT-549
CCRF-CEM = test system: CCRF-CEM
SK-MEL-28 = test system: SK-MEL-28
CAKI-1 = test system: CAKI-1
RXF 393 = test system: RXF 393
OVCAR-8 = test system: OVCAR-8
IGROV-1 = test system: IGROV-1
LOX IMVI = test system: LOX IMVI
A549 = test system: A549
SF-539 = test system: SF-539
PC-3 = test system: PC-3

Row | Structure (SMILES) | GI50 (OVCAR-4) | GI50 (OVCAR-3) | GI50 (MDA-MB-231) | GI50 (NCI-H522) | GI50 (SNB-75) | GI50 (SN12C) | GI50 (OVCAR-5) | GI50 (HT-29) | GI50 (NCI-H460) | GI50 (BT-549) | GI50 (CCRF-CEM) | GI50 (SK-MEL-28) | GI50 (CAKI-1) | GI50 (RXF 393) | GI50 (OVCAR-8) | GI50 (IGROV-1) | GI50 (LOX IMVI) | GI50 (A549) | GI50 (SF-539) | GI50 (PC-3)
1 | Cc1ccc2c(c1)c1ccc3c(c1n2C)C(=O)C=CC3=O | 2.32 µM (inactive) | 1.95 µM (inactive) | 2.36 µM (inactive) | 1.23 µM (inactive) | > 10 µM (inactive) | 3.52 µM (inactive) | > 10 µM (inactive) | > 10 µM (inactive) | > 10 µM (inactive) | 1.36 µM (inactive) | 0.284 µM (active) | 2.18 µM (inactive) | 2.36 µM (inactive) | 1.97 µM (inactive) | 2.18 µM (inactive) | 3.52 µM (inactive) | 9.53 µM (inactive) | > 10 µM (inactive) | 2.32 µM (inactive) | 3.66 µM (inactive)
2 | CC(C)OC(=O)NNc1c(Cl)cc(Cl)cc1Cl | – | 56 µM (inactive) | > 100 µM (inactive) | 30.1 µM (inactive) | 99.5 µM (inactive) | > 100 µM (inactive) | > 100 µM (inactive) | > 100 µM (inactive) | 63.7 µM (inactive) | 44.4 µM (inactive) | 53.6 µM (inactive) | > 100 µM (inactive) | 58.6 µM (inactive) | 26.2 µM (inactive) | > 100 µM (inactive) | 37.3 µM (inactive) | 76.7 µM (inactive) | 53 µM (inactive) | > 100 µM (inactive) | 36.9 µM (inactive)
3 | COc1ccc(-c2cn3c(nc4ccccc43)c(C)n2)cc1 | 47.6 µM (inactive) | 54.8 µM (inactive) | > 100 µM (inactive) | 39.1 µM (inactive) | > 50.8 µM (inactive) | > 77.1 µM (inactive) | > 78.5 µM (inactive) | > 100 µM (inactive) | 60.1 µM (inactive) | 33.7 µM (inactive) | > 100 µM (inactive) | 95.5 µM (inactive) | 52.1 µM (inactive) | 44.5 µM (inactive) | 34.4 µM (inactive) | 28.8 µM (inactive) | > 93.5 µM (inactive) | 86.5 µM (inactive) | 76.7 µM (inactive) | 72.3 µM (inactive)
4 | COC(=O)C(C(=O)C(=O)Nc1ccccc1C#N)c1nc2ccc([N+](=O)[O-])cc2nc1O (centres undefined) | 53.3 µM (inactive) | > 100 µM (inactive) | > 100 µM (inactive) | 53.7 µM (inactive) | > 100 µM (inactive) | > 100 µM (inactive) | > 100 µM (inactive) | > 100 µM (inactive) | > 100 µM (inactive) | > 100 µM (inactive) | 94 µM (inactive) | > 100 µM (inactive) | > 100 µM (inactive) | > 100 µM (inactive) | > 100 µM (inactive) | 94.4 µM (inactive) | > 100 µM (inactive) | > 100 µM (inactive) | 44.5 µM (inactive) | > 100 µM (inactive)
5 | Cc1cc(C)c(S(=O)(=O)N(CCCN)OCCON(CCCN)S(=O)(=O)c2c(C)cc(C)cc2C)c(C)c1 | 3.3 µM (inactive) | 1.79 µM (inactive) | 2.89 µM (inactive) | 6.53 µM (inactive) | 3.42 µM (inactive) | 7.87 µM (inactive) | 2.24 µM (inactive) | 10 µM (inactive) | 2.67 µM (inactive) | 7.78 µM (inactive) | 2.71 µM (inactive) | 5.26 µM (inactive) | 26.2 µM (inactive) | 4.67 µM (inactive) | 12.6 µM (inactive) | 1.97 µM (inactive) | 2.44 µM (inactive) | 3.31 µM (inactive) | 2.49 µM (inactive) | 1.73 µM (inactive)
6 | Cc1ccc(Cc2cc(N3CCN(c4cccc(Cl)c4)CC3)nnc2C)cc1 | > 100 µM (inactive) | > 100 µM (inactive) | > 100 µM (inactive) | 18.7 µM (inactive) | 50.4 µM (inactive) | 56.4 µM (inactive) | > 100 µM (inactive) | 31.6 µM (inactive) | 20.7 µM (inactive) | > 100 µM (inactive) | – | > 100 µM (inactive) | > 100 µM (inactive) | 84.7 µM (inactive) | 54.8 µM (inactive) | – | – | 43 µM (inactive) | 38.1 µM (inactive) | 46.8 µM (inactive)
7 | CCn1c(-c2ccccc2)cs/c1=N\C(P(=O)(O)O)P(=O)(O)O | – | > 100 µM (inactive) | > 100 µM (inactive) | > 100 µM (inactive) | > 100 µM (inactive) | – | > 100 µM (inactive) | > 100 µM (inactive) | > 100 µM (inactive) | > 100 µM (inactive) | 2.05 µM (inactive) | > 100 µM (inactive) | > 100 µM (inactive) | > 100 µM (inactive) | > 100 µM (inactive) | > 100 µM (inactive) | > 100 µM (inactive) | > 100 µM (inactive) | > 100 µM (inactive) | > 100 µM (inactive)
